Patent US9802927B2, “Oxadiazine compounds and methods of use thereof” (Denali Therapeutics, Inc., priority 2015, dated 2017)

tested on: Aβ42; experiment: In vitro cell screening assay in H4 cells expressing human APP751: Aβ42 by sandwich ELISA; assay type: cell-based; conditions: compounds 0.003-10 μM, incubated overnight (16-18 h), sandwich ELISA of supernatant
Description: Human neuroglioma H4 cells were transfected with a pcDNA3.1 plasmid expressing human wild type APP751 cDNA and a stable cell line was generated using G418 selection. Cells were plated at 15,000 cells/well in Costar 96-well plates and placed at 37° C. and 5% CO2. Six hours after plating, cells were washed three times with Pro293™ chemically defined medium, followed by addition of compounds (0.003-10 μM, final DMSO concentration of 0.33%). Plates were incubated overnight (16-18 h) and supernatant was removed for quantification of Aβ peptides by sandwich ELISA. Cytotoxicity was evaluated using Cell-Titer 96W AQueous One Solution Cell Proliferation Assay according to the manufacturer's protocol.
Aβ peptide levels were quantified by sandwich ELISA. 96-well plates were coated with C-terminal specific Aβ antibodies recognizing either Aβ37, Aβ38, Aβ40, Aβ42, Aβ43 or a N-terminal specific Aβ antibody to detect Aβ 1-x. Plates were then blocked overnight at 4° C. with 1% bovine serum albumin (BSA) in PBS-T. Plates were washed and 100 μl of cultured cell supernatant or synthetic Aβ peptide standards and a detection antibody (4G8-HRP) were applied to the blocked plate and incubated overnight at 4° C. The next day, wells were washed before the addition of detection substrate (TMB peroxidase). Plates were then read for absorbance at 450 nm on a Molecular Devices SpectraMax M5e Microplate Reader.
Compound-treated samples were normalized to samples treated with DMSO alone (no inhibition) and to samples treated with DAPT. EC50 values were calculated from values reported as percent of DMSO controls using nonlinear regression, based on a sigmoidal dose response (variable slope) model. GraphPAD software from Prism used for calculation.

Row | EC50 [nM] | Structure (SMILES)
1 | 256 | COc1nc(C2=NOCC(c3nc4ccccc4o3)N2)ccc1-n1cnc(C)c1 (single isomer, unassigned; (+)) [Example 203B, (+)-2-(3-(6-methoxy-5-(4-methyl-1H-imidazol-1-yl)pyridin-2-yl)-5,6-dihydro-4H-1,2,4-oxadiazin-5-yl)benzo[d]oxazole]
2 | 6.9 | COc1nc(C2=NOCC(c3cn(C)c4cccc(F)c34)N2)ccc1-n1cnc(C)c1 (single isomer, unassigned; (+)) [Example 191A, (+)-5-(4-fluoro-1-methyl-1H-indol-3-yl)-3-(6-methoxy-5-(4-methyl-1H-imidazol-1-yl)pyridin-2-yl)-5,6-dihydro-4H-1,2,4-oxadiazine]
3 | 904 | COc1nc(C2=NOCC(c3cccc(S(C)(=O)=O)c3)N2)ccc1-n1cnc(C)c1 (single isomer, unassigned; (+)) [Example 214B, (+)-3-(6-methoxy-5-(4-methyl-1H-imidazol-1-yl)pyridin-2-yl)-5-(3-(methylsulfonyl)phenyl)-5,6-dihydro-4H-1,2,4-oxadiazine]
4 | 73 | COc1nc(C2=NOCC(c3ccc(OC(F)F)cc3)N2)ccc1-n1cnc(C)c1 (single isomer, unassigned; (+)) [Example 93B, (+)-5-(4-(difluoromethoxy)phenyl)-3-(6-methoxy-5-(4-methyl-1H-imidazol-1-yl)pyridin-2-yl)-5,6-dihydro-4H-1,2,4-oxadiazine]
5 | 775 | COc1nc(C2=NOCC(c3ccccc3Cl)N2)ccc1-n1cnc(C)c1 (single isomer, unassigned) [Example 136B, 5-(2-chlorophenyl)-3-(6-methoxy-5-(4-methyl-1H-imidazol-1-yl)pyridin-2-yl)-5,6-dihydro-4H-1,2,4-oxadiazine]
6 | > 3000 | COc1nc(C2=NOCC(c3ccccc3C)N2)ccc1-n1cnc(C)c1 (single isomer, unassigned; (-)) [Example 131B, (−)-3-(6-methoxy-5-(4-methyl-1H-imidazol-1-yl)pyridin-2-yl)-5-(o-tolyl)-5,6-dihydro-4H-1,2,4-oxadiazine]
7 | > 3000 | COc1nc(C2=NOCC(c3cccc(S(C)(=O)=O)c3)N2)ccc1-n1cnc(C)c1 (single isomer, unassigned; (-)) [Example 214A, (−)-3-(6-methoxy-5-(4-methyl-1H-imidazol-1-yl)pyridin-2-yl)-5-(3-(methylsulfonyl)phenyl)-5,6-dihydro-4H-1,2,4-oxadiazine]
8 | 30.2 | COc1nc(C2=NOCC(c3cn(C)c4cc(C#N)ccc34)N2)ccc1-n1cnc(C)c1 (single isomer, unassigned; (+)) [Example 249B, (+)-3-(3-(6-methoxy-5-(4-methyl-1H-imidazol-1-yl)pyridin-2-yl)-5,6-dihydro-4H-1,2,4-oxadiazin-5-yl)-1-methyl-1H-indole-6-carbonitrile]
9 | > 3000 | COc1nc(C2=NOCC(c3ccc(F)c(F)c3)N2)ccc1-n1cnc(C)c1 (single isomer, unassigned; (-)) [Example 75A, (−)-5-(3,4-difluorophenyl)-3-(6-methoxy-5-(4-methyl-1H-imidazol-1-yl)pyridin-2-yl)-5,6-dihydro-4H-1,2,4-oxadiazine]
10 | 728 | CCC1CON=C(c2ccc(-n3cnc(C)c3)c(OC)n2)N1 (single isomer, unassigned) [Example 133B, 5-ethyl-3-(6-methoxy-5-(4-methyl-1H-imidazol-1-yl)pyridin-2-yl)-5,6-dihydro-4H-1,2,4-oxadiazine]
11 | 36.5 | COc1nc(C2=NOCC(c3cc(F)c(F)c(F)c3)N2)ccc1-n1cnc(C)c1 (single isomer, unassigned; (+)) [Example 91B, (+)-3-(6-methoxy-5-(4-methyl-1H-imidazol-1-yl)pyridin-2-yl)-5-(3,4,5-trifluorophenyl)-5,6-dihydro-4H-1,2,4-oxadiazine]
12 | 944 | COc1nc(C2=NOCC(c3cc4cc(F)ccc4o3)N2)ccc1-n1cnc(C)c1 (single isomer, unassigned; (-)) [Example 84A, (−)-5-(5-fluorobenzofuran-2-yl)-3-(6-methoxy-5-(4-methyl-1H-imidazol-1-yl)pyridin-2-yl)-5,6-dihydro-4H-1,2,4-oxadiazine]
13 | 22.9 | COc1nc(C2=NOCC(c3ccc(Cl)c(F)c3)N2)ccc1-n1cnc(C)c1 (single isomer, unassigned; (+)) [Example 106B, (+)-5-(4-chloro-3-fluorophenyl)-3-(6-methoxy-5-(4-methyl-1H-imidazol-1-yl)pyridin-2-yl)-5,6-dihydro-4H-1,2,4-oxadiazine]
14 | 2670 | COc1cccc(C2CON=C(c3ccc(-n4cnc(C)c4)c(OC)n3)N2)c1 (single isomer, unassigned; (-)) [Example 145A, (−)-3-(6-methoxy-5-(4-methyl-1H-imidazol-1-yl)pyridin-2-yl)-5-(3-methoxyphenyl)-5,6-dihydro-4H-1,2,4-oxadiazine]

More lines, now with the values behind:

Row | Structure (SMILES) | EC50 [nM]
15 | COc1nc(C2=NOCC(c3ccc(OC(F)(F)F)cc3)N2)ccc1-n1cnc(C)c1 (single isomer, unassigned; (-)) [Example 70A, (−)-3-(6-methoxy-5-(4-methyl-1H-imidazol-1-yl)pyridin-2-yl)-5-(4-(trifluoromethoxy)phenyl)-5,6-dihydro-4H-1,2,4-oxadiazine] | > 3000
16 | COc1nc(C2=NOCC(c3ccc(C(F)(F)F)c(Cl)c3)N2)ccc1-n1cnc(C)c1 (single isomer, unassigned; (-)) [Example 262A, (−)-5-(3-chloro-4-(trifluoromethyl)phenyl)-3-(6-methoxy-5-(4-methyl-1H-imidazol-1-yl)pyridin-2-yl)-5,6-dihydro-4H-1,2,4-oxadiazine] | > 3000
17 | COc1nc(C2=NOCC(c3cc4cccc(Cl)c4o3)N2)ccc1-n1cnc(C)c1 (single isomer, unassigned; (+)) [Example 64B, (+)-5-(7-chlorobenzofuran-2-yl)-3-(6-methoxy-5-(4-methyl-1H-imidazol-1-yl)pyridin-2-yl)-5,6-dihydro-4H-1,2,4-oxadiazine] | 12.2
18 | COc1ccc2c(c1)c(C1CON=C(c3ccc(-n4cnc(C)c4)c(OC)n3)N1)cn2C (single isomer, unassigned; (-)) [Example 250A, (−)-5-(5-methoxy-1-methyl-1H-indol-3-yl)-3-(6-methoxy-5-(4-methyl-1H-imidazol-1-yl)pyridin-2-yl)-5,6-dihydro-4H-1,2,4-oxadiazine] | 202
19 | COc1nc(C2=NOCC(c3cc4ccc(C5CC5)cc4o3)N2)ccc1-n1cnc(C)c1 (single isomer, unassigned; (+)) [Example 236B, (+)-5-(6-cyclopropylbenzofuran-2-yl)-3-(6-methoxy-5-(4-methyl-1H-imidazol-1-yl)pyridin-2-yl)-5,6-dihydro-4H-1,2,4-oxadiazine] | 9.2
20 | COc1nc(C2=NOCC(c3cc4cc(Cl)ccc4o3)N2)ccc1-n1cnc(C)c1 (single isomer, unassigned; (+)) [Example 57B, (+)-5-(5-chlorobenzofuran-2-yl)-3-(6-methoxy-5-(4-methyl-1H-imidazol-1-yl)pyridin-2-yl)-5,6-dihydro-4H-1,2,4-oxadiazine] | 17.8
21 | COc1nc(C2=NOCC(c3cn(C)c4cccc(C#N)c34)N2)ccc1-n1cnc(C)c1 (single isomer, unassigned; (-)) [Example 247B, (−)-3-(3-(6-methoxy-5-(4-methyl-1H-imidazol-1-yl)pyridin-2-yl)-5,6-dihydro-4H-1,2,4-oxadiazin-5-yl)-1-methyl-1H-indole-4-carbonitrile] | 79.2
22 | COc1cc(Cl)c2c(C3CON=C(c4ccc(-n5cnc(C)c5)c(OC)n4)N3)cn(C)c2c1 (single isomer, unassigned; (-)) [Example 261B, (−)-5-(4-chloro-6-methoxy-1-methyl-1H-indol-3-yl)-3-(6-methoxy-5-(4-methyl-1H-imidazol-1-yl)pyridin-2-yl)-5,6-dihydro-4H-1,2,4-oxadiazine] | 21.2
23 | COc1nc(C2=NOCC(c3cn(C)c4cc(F)c(C)cc34)N2)ccc1-n1cnc(C)c1 (single isomer, unassigned; (+)) [Example 257B, (+)-5-(6-fluoro-1,5-dimethyl-1H-indol-3-yl)-3-(6-methoxy-5-(4-methyl-1H-imidazol-1-yl)pyridin-2-yl)-5,6-dihydro-4H-1,2,4-oxadiazine] | 4.9
24 | COc1nc(C2=NOCC(c3cn(C)c4ncc(C(F)(F)F)cc34)N2)ccc1-n1cnc(C)c1 (single isomer, unassigned; (-)) [Example 206A, (−)-3-(6-methoxy-5-(4-methyl-1H-imidazol-1-yl)pyridin-2-yl)-5-(1-methyl-5-(trifluoromethyl)-1H-pyrrolo [2,3-b]pyridin-3-yl)-5,6-dihydro-4H-1,2,4-oxadiazine] | 800
25 | COc1nc(C2=NOCC(c3cn(C)c4cc(F)cc(F)c34)N2)ccc1-n1cnc(C)c1 (single isomer, unassigned; (+)) [Example 226A, (+)-5-(4,6-difluoro-1-methyl-1H-indol-3-yl)-3-(6-methoxy-5-(4-methyl-1H-imidazol-1-yl)pyridin-2-yl)-5,6-dihydro-4H-1,2,4-oxadiazine] | 9.4
